Measurements reported in paper PMC12655252, “Synthesis of 1H-Pyrrolo[3,2-g]isoquinoline Derivatives as Ligands Targeting Haspin Kinase” (Molecules, 2025).

What was measured:
[1] = test system: endogenous Haspin kinase (phosphorylation of Histone H3 on Thr3) in U2OS cells; assay: H3T3ph immunofluorescence assay in U2OS cells (cellular endogenous Haspin activity); type: cell-based; settings: 2.5 μM compound, 16 h, early mitotic cells; for inhibition at 2.5 µM: Homo sapiens, read-out: Inhibition of endogenous Haspin activity (H3T3 phosphorylation) compared to DMSO control
Procedure: In order to assess the ability of our most interesting compounds to inhibit cellular endogenous Haspin kinase, we evaluated their effects on the phosphorylation of Histone H3 on Thr3, a bona fide Haspin substrate (Figure 4). We treated osteosarcoma U2OS cells with 2.5 μM of selected compounds for 16 h before quantifying H3T3 phosphorylation by immunofluorescence on early mitotic cells (Figure 4A,B). […] This discrepency could be explained by the inability of this compound to cross the plasma membrane or by reduced stability in a cellular environment.
Ethical approval for this study was obtained (9 July 2025) from DGRI-LabOGM (APPROVAL NUMBER: L1-2373). U2OS cells (purchased from ATCC, Manassas, VA, USA, reference HTB-96) were grown in DMEM medium (Dulbecco’s Modified Eagle Medium, High glucose; GlutaMAX, Life Technologies, Carlsbad, CA, USA) supplemented with 10% fetal bovine serum (Gibco, Grand Island, NY, USA) in a 5% CO2 humidified atmosphere. Cells grown on coverslips were treated for 16 h with each compound or 0.025% DMSO, then fixed with 4% paraformaldehyde in PBS, permeabilized by 0.15% Triton-X100 for 2 min, and blocked for 12 min in 4% BSA in PBS. Immunofluorescence assay was performed using standard protocols with a rabbit anti-phospho-Thr3 Histone H3 and a mouse anti-a-Tubulin (B-5-1-2) obtained from Merck Millipore, Burlington, MA, USA (1/2000 dilution). Coverslips were mounted with Vectashield containing DAPI (Vector Laboratories, Newark, CA, USA). Images were acquired with a Coolsnap HQ2 CCD camera (Photometrics, Tucson, AZ, USA) on a Zeiss Axio microscope (Carl Zeiss, Oberkochen, Germany) using a 63x NA 1.46 objective. Image acquisition and processing were performed using Zen Blue (Carl Zeiss). The H3T3ph signal on chromosomes was normalized against the DAPI signal and analyzed using ImageJ software (NIH, Version 1.54p). Graphs were produced and statistical analysis was performed using GraphPad Prism 10. p-values were determined by t-test; n.s., not significant; **** p ≤ 0.0001.
Figure 4 Evaluation of selected compounds on cellular endogenous Haspin activity. (A) U2OS cells were treated with 2.5 μM of each compound or 1 μM of CHR6494 (CHR) or DMSO for 16 h. Immunofluorescence assay was performed with anti-pH3T3 antibody (green) and anti-a-Tubulin (red); DNA was labelled with DAPI (blue). Representative images of early mitotic cells for each condition are presented. Scale bar: 5 μm. (B) Scatter plot representing H3T3ph/DAPI signal ratio indicative of Haspin activity; n > 17 mitotic cells per condition. n.s., not significant; **** p ≤ 0.0001.

Pim-1 = target: T1, Pim-1 (Homo sapiens, UniProt P11309); assay: ADP-Glo in vitro kinase inhibition assay, Pim-1; type: biochemical; settings: 10 μM ATP; for remaining activity at 1 µM: 1 μM compound; for remaining activity at 1 µM / remaining activity at 10 µM: read-out: PIM1 % residual activity; for IC50: read-out: PIM1 IC50; for remaining activity at 10 µM: 10 μM compound
T1 construct: made in house; host or cells: bacteria
T1 sequence (P11309 whole entry): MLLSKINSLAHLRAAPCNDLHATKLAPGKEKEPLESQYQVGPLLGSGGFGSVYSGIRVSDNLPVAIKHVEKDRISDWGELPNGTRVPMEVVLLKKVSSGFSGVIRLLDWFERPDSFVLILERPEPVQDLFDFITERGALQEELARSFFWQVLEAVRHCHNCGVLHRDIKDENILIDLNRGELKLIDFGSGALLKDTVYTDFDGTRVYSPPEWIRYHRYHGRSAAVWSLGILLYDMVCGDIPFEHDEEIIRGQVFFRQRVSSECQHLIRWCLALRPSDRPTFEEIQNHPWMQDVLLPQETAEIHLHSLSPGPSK
Procedure: (§1) We previouly reported that substitution at the 3-position with halogen atoms or pyridinyl or formyl groups was compatible with high potency toward Haspin kinase. To check if the current structural changes were in line with potent Haspin inhibition and high selectivity, enabling consideration of these compounds as possible targeting ligands for the PROTAC approach, compounds 2, 3, 8–11, and 15–17 were evaluated toward a panel of eight protein kinases, including Haspin, as well as other kinases known to be frequently cross-inhibited (CLK1, DYRK1A, CDK9/Cyclin T, GSK-3β, CK1ε, CDK5/p25, and Pim1) (Table 1). The percentage of residual kinase activity was evaluated at 10 μM and 1 μM compound concentrations. […].
(§2) Kinase inhibition was tested in 384-well plates using the ADP-GloTM assay kit (Promega, Madison, WI, USA) according to the procedure recommended by the manufacturer. Reactions were set up in a final volume of 6 μL in an appropriate kinase buffer (10 mM MgCl2, 1 mM EGTA, 1 mM DTT, 25 mM Tris-HCl pH 7.5, 50 μg/mL heparin) with either protein or peptide as the substrate in the presence of 10 μM ATP. To stop the kinase reaction, 6 μL of ADP-GloTM Kinase Reagent was added after 30 min at 30 °C. Then, after 50 min of incubation at room temperature (RT), 12 μL of Kinase Detection Reagent was added. The transmitted signal was measured after 1 h at RT using the Envision (Perkin Elmer, Waltham, MA, USA) microplate luminometer and expressed in relative light units (RLU). In order to determine the half-maximal inhibitory concentration (IC50), all assays were performed in duplicate in the absence or presence of increasing doses of the tested compounds. GraphPad Prism10 software (GraphPad Software, San Diego, CA, USA) was used to fit dose–response curves and to determine the IC50 values. Kinase activities are given as percentages of maximal activity, i.e., measured in the absence of inhibitor. Peptide substrates were obtained from Proteogenix (Schiltigheim, France).
(§3) The following protein kinases were analyzed in this study: CDK5/p25 (human, vector pGEX-2T, expressed in bacteria; kindly provided by Dr. J. H. Wang) was assayed with 0.8 μg/μL of histone H1 as substrate; HsCDK9/CyclinT (NP_001252/KAI4065659, cloned in pTEFb vector, expressed by baculovirus in Sf9 insect cells) were assayed with 0.27 μg/μL of the following peptide: […], as substrate; HsCK1ε (NP_001885, cloned in pFAST-BAC vector, expressed in Sf9 insect cells) was assayed with 0.022 μg/μL of the following peptide: […]pAYSITA (“Sp” stands for phosphorylated serine) as CK1-specific substrate; HsGSK3β (AAH12760, cloned in pFAST-BAC, expressed by baculovirus in Sf9 insect cells) were assayed with 0.010 μg/μL of GS-1 peptide, a GSK-3-selective substrate ([…]pEDEEE); HsHaspin-kd (NP_114171, kinase domain, amino acids 470–798 cloned in pGEX-6P-3, expressed in bacteria) was assayed with 0.007 μg/μL of histone H3 (1–21) peptide ([…]) as substrate; Pim-1 (KAI4018123, expressed in bacteria) was assayed with 0.8 μg/μL of histone H1 as substrate; HsCLK1 (NP_004062, cloned in pFAST-BAC, expressed in Sf9 insect cells) was assayed with 0.027 μg/μL of the peptide: […]; RnDYRK1A-kd (Rattus norvegicus, amino acids 1–499, pGEX-2TK, expressed in bacteria, gift from Dr. W. Becker, Aachen, Germany) was tested in the presence of 0.033 μg/μL of the peptide: […].

CDK5/p25 = target: T2, CDK5/p25 (Homo sapiens, UniProt Q00535); assay: ADP-Glo in vitro kinase inhibition assay, CDK5/p25; type: biochemical; settings: 10 μM ATP, read-out: CDK5 % residual activity; for remaining activity at 1 µM: 1 μM compound; for remaining activity at 10 µM: 10 μM compound
T2 construct: made in house; host or cells: bacteria
T2 sequence (Q00535 whole entry): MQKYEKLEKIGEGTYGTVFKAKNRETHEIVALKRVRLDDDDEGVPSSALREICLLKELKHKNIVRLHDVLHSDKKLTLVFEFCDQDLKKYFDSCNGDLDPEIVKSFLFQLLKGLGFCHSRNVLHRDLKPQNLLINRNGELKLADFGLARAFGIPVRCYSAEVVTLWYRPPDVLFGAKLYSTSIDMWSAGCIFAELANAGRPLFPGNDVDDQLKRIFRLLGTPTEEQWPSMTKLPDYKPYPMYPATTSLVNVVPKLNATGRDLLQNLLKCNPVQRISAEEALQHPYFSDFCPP
T2 sequence (Q15078 99-307 partner limits assumed): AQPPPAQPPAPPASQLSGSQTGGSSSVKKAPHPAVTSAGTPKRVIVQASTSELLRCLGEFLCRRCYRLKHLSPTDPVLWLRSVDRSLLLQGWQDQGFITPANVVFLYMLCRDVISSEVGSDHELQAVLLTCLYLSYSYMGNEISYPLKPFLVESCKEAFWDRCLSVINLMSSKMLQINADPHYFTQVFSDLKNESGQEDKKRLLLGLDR
Procedure: as §1, §2, §3

**Q.** For `c1cc2cc3c(-c4cc[nH]n4)c[nH]c3cc2cn1` [Compound 15, 3-(1H-Pyrazol-3-yl)-1H-pyrrolo[3,2-g]isoquinoline], which inhibition at 2.5 µM [1] is on record?
**A.** The inhibition at 2.5 µM was 66%.

**Q.** And the remaining activity at 1 µM (Pim-1)?
**A.** Its remaining activity at 1 µM is 44%.

**Q.** And the IC50 (Pim-1)?
**A.** The IC50 was 0.222 µM.

**Q.** And the remaining activity at 10 µM (Pim-1)?
**A.** Its remaining activity at 10 µM is 0%.

**Q.** And the remaining activity at 1 µM (CDK5/p25)?
**A.** The remaining activity at 1 µM was 98%.

**Q.** And the remaining activity at 10 µM (CDK5/p25)?
**A.** The remaining activity at 10 µM was 76%.

**Q.** Which results are given for `c1c[nH]c(-c2c[nH]c3cc4cnccc4cc23)c1` [Compound 17, 3-(1H-Pyrrol-2-yl)-1H-pyrrolo[3,2-g]isoquinoline]?
**A.** inhibition at 2.5 µM [1]: ~43%; remaining activity at 1 µM (Pim-1): 91%; remaining activity at 10 µM (Pim-1): 33%; remaining activity at 1 µM (CDK5/p25): 75%; remaining activity at 10 µM (CDK5/p25): 81%

**Q.** With `c1cc2cc3c(-c4cn[nH]c4)c[nH]c3cc2cn1` [Compound 16, 3-(1H-Pyrazol-4-yl)-1H-pyrrolo[3,2-g]isoquinoline] as the compound, how does the inhibition at 2.5 µM [1] read?
**A.** Its inhibition at 2.5 µM is 77%.

**Q.** And the remaining activity at 1 µM (Pim-1)?
**A.** The remaining activity at 1 µM was 20%.

**Q.** What about the remaining activity at 10 µM (Pim-1) of the same compound?
**A.** The remaining activity at 10 µM was 0%.

**Q.** And the remaining activity at 1 µM (CDK5/p25)?
**A.** Its remaining activity at 1 µM is 91%.

**Q.** What about the remaining activity at 10 µM (CDK5/p25) of the same compound?
**A.** Its remaining activity at 10 µM is 10%.

**Q.** With `COC(=O)/C=C/c1c[nH]c2cc3cnccc3cc12` [Compound 8, Methyl (E)-3-(1H-Pyrrolo[3,2-g]isoquinolin-3-yl)prop-2-enoate] as the compound, how does the “Inhibition of endogenous Haspin activity (H3T3 phosphorylation) compared to DMSO control” value [1] read?
**A.** The value was “did not show any significant inhibitory potential”.

**Q.** What about the remaining activity at 1 µM (Pim-1) of the same compound?
**A.** The remaining activity at 1 µM was 26%.

**Q.** And the IC50 (Pim-1)?
**A.** Its IC50 is 0.404 µM.

**Q.** What about the remaining activity at 10 µM (Pim-1) of the same compound?
**A.** Its remaining activity at 10 µM is 8%.

**Q.** What about the remaining activity at 1 µM (CDK5/p25) of the same compound?
**A.** The remaining activity at 1 µM was 72%.

**Q.** And the remaining activity at 10 µM (CDK5/p25)?
**A.** Its remaining activity at 10 µM is 100%.

**Q.** Which inhibition at 2.5 µM [1] does the source give for `Nc1ccc(-c2c[nH]c3cc4cnccc4cc23)cn1` [Compound 3, 5-(1H-Pyrrolo[3,2-g]isoquinolin-3-yl)pyridin-2-amine] here?
**A.** Its inhibition at 2.5 µM is about 43%.

**Q.** What about the remaining activity at 1 µM (Pim-1) of the same compound?
**A.** The remaining activity at 1 µM was 17%.

**Q.** What about the IC50 (Pim-1) of the same compound?
**A.** The IC50 was 0.0937 µM.

**Q.** What about the remaining activity at 10 µM (Pim-1) of the same compound?
**A.** Its remaining activity at 10 µM is 7%.

**Q.** And the remaining activity at 1 µM (CDK5/p25)?
**A.** Its remaining activity at 1 µM is 100%.

**Q.** What about the remaining activity at 10 µM (CDK5/p25) of the same compound?
**A.** The remaining activity at 10 µM was 100%.
